Data as given in patent publication US6610707B1, “Heterocyclic compounds as inhibitors of rotomase enzymes” (Pfizer Inc., priority 1998, dated 2003).
pIC50, pKi: −log10 of the molar value.

The compounds below were run against human recombinant FKBP-12 (Homo sapiens, UniProt P62942) (assay: coupled colorimetric PPIase (rotamase) assay, IC50 against FKBP-12). Details: human recombinant FKBP-12, substrate succinyl-AFPF-pNA, 10° C., pH 8.0.
Assay type: biochemical
Description: The affinity of the compounds of the formula (I) for FKBP-12 can be determined in vitro in a coupled colorimetric PPlase assay using similar procedures to published methods (e.g. see Kofron, J. L., et al., Biochemistry, 1991, 30, 6127-6134, Zarnt, T., et al., Biochem. J. 1995, 305, 159-164, Holt, D. A., et al., J. Am. Chem. Soc., 1993,115, 9925-9938). In these methods, the cis-trans isomerisation of a hydrophobic amino acid-proline bond in a tetrapeptide substrate (e.g. the phenylalanine-proline bond in N-succinyl-ala-phepro-phe-p-nitroanilide [succinyl-AFPF-pNA]) can be determined by monitoring cleavage of pNA from the transPro-containing peptide by an excess of chymotrypsin.
The IC50 (the concentration of the compound of the formula (I) producing 50% inhibition) values were determined using the following assay methodology. Assay buffer (2.175 ml) (50 mM 4-(2-hydroxyethyl)-1-piperazineethanesulphonic acid (HEPES), 100 mM NaCl, 1 mM dithiothreitol (DTT), pH 8.0) is equilibrated to 10° C. in a cuvette. 12.5 μl of a solution of the present compound in DMSO, 250 μl of a 60 mg/ml solution of a-chymotrypsin in 1 mM aqueous hydrochloric acid and then 50 μl of a solution of human recombinant FKBP-12 (4.5 μM) in assay buffer are added and mixed. The reaction is initiated by addition of 12.5 μl of a solution of 20 mM succinyl-AFPF-pNA in DMSO. The absorbance at 390 nm is monitored for one minute collecting data every 0.25 second. Data are fitted with a first order rate equation with offset and the rate constant obtained corrected for the rate of uncatalysed isomerisation of the substrate. The rate constant determined at different inhibitor concentrations (10 nM to 100 μM) is expressed as % inhibition of the control rate constant. The IC50 is estimated using a nonlinear least squares curve fitting routine of the sigmoidal dose response data.

Chain of human recombinant FKBP-12 (P62942 whole entry): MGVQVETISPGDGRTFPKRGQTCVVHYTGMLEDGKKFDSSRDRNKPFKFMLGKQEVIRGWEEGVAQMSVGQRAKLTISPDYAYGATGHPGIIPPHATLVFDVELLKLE

| Compound | pIC50 |
| --- | --- |
| NCc1ccc(-c2nc([C@@H]3CCCCN3S(=O)(=O)CC3CCCCC3)no2)o1 [Example 25, [5-(3-(2S)-1-[(Cyclohexylmethyl)sulfonyl]-2-piperidyl-1,2,4-oxadiazol-5-yl)-2-furyl]methylamine] | 7.09 |
| O=S(=O)(c1ccc(F)cc1)N1CCCC[C@H]1c1nnc(CCc2ccccc2)o1 [Example 42] | 5.70 |
| O=S(=O)(c1nc2ccccc2[nH]1)N1CCCCC1c1noc(-c2ncccn2)n1 (centres unmarked) [Example 65] | 6.35 |
| O=S(=O)(c1ccc(F)cc1)N1CCCC[C@H]1c1nnn(Cc2ccccc2)n1 [Example 43] | 5.78 |
| CNCc1ccc(OCc2nc(C3CCCCN3S(=O)(=O)c3nc4ccccc4[nH]3)no2)cc1 (centres unmarked) [Example 14, N-[4-(3-[1-(1H-Benzo[d]imidazol-2-ylsulfonyl)-2-piperidyl]-1,2,4-oxadiazol-5-ylmethoxy)benzyl]-N-methylamine] | 7.04 |
| O=S(=O)(CC1CCCCC1)N1CCCC[C@H]1c1noc(COC2CCNCC2)n1 [Example 23, 3-[(2S)-1-Cyclohexylmethylsulfonyl-2-piperidyl]-5-[4-piperidyloxymethyl]-1,2,4-oxadiazole] | 6.47 |
| O=S(=O)(c1nc2ccccc2[nH]1)N1CCCC[C@H]1c1noc(Cc2ccccc2)n1 [Example 1, 1H-Benzo[d]imidazol-2-yl[(2S)-2-(5-benzyl-1,2,4-oxadiazol-3-yl)-1-piperidyl]sulfone] | 7.02 |

Each compound was assayed against T1, human recombinant FKBP52 (Homo sapiens, UniProt Q02790) (assay: coupled colorimetric PPIase assay, Ki,app against FKBP52). Details: human recombinant FKBP52, substrate succinyl-ALPF-pNA, printed in the IC50 (nm) FKBP-12 column, read-out: Ki FKBP-52.
T1 sequence (Q02790 1-459): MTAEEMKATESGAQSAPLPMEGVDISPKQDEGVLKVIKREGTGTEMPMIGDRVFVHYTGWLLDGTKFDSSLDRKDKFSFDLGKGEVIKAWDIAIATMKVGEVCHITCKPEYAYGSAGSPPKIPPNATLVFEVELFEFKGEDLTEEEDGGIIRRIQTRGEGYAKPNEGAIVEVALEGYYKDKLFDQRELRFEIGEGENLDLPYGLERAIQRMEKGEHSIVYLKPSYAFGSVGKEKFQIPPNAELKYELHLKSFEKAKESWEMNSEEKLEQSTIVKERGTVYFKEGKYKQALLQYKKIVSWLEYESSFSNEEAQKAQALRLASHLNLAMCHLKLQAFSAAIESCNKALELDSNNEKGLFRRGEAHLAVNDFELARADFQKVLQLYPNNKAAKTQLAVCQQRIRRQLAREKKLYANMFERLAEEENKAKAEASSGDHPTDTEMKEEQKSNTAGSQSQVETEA
Assay type: biochemical

| Compound | pKi |
| --- | --- |
| NCc1ccc(OCc2nc([C@@H]3CCCCN3S(=O)(=O)c3nc4ccccc4[nH]3)no2)cc1 [Example 11, 4-(3-[(2S)-1-(1H-Benzo[d]imidazol-2-ylsuffonyl)-2-piperidyl]-1,2,4-oxadiazol-5-ylmethoxy)benzylamine] | 6.16 |
